Assays:
[1] = test system: mec-2 null worms expressing the mec-2(C140/174A) gene; test: C. elegans gentle touch sensitivity on plates with defined sterols; assay type: in vivo; conditions: sterol substituted for cholesterol in the growth medium, FIG. 8C
Experimental: C. elegans experiments. C. elegans strains were cultured at 20° C., assayed for touch sensitivity, and prepared for immunofluorescence as described previously [Zhang et al. (2004) Curr. Biol. 14:1888-96; Goodman et al. (2002) Nature 415:1039-42]. Briefly, C. elegans strains were cultured at 20° C. as described in the art. Strains were grown for at least three consecutive generations without starvation before carrying out the experiments described herein. Gentle touch and harsh touch sensitivity were assayed in blind tests by stimulating with an eyebrow hair or prodding with a platinum wire, respectively, as described in the art. To quantify the response, the number of responses in about 30 animals to 10 touches delivered alternately near the head and tail was recorded. Whole-mount immunofluorescence microscopy was carried out using methods known in the art.
Media for growth on limiting or no cholesterol or on other sterols were prepared from chloroform-extracted reagents as described by Matyash et al. [(2004) PLoS Biol. 2: e280].
First, a version of MEC-2 with reduced cholesterol binding was generating by mutating the predicted palmitoylation sites of the protein. Briefly, HEK293T cells were transfected with wild type MEC-2 or MEC-2(C140/174A) and labeled with [^3H]palmitic acid or [^3H]photoaffinity cholesterol. Equal expression of proteins in the lysates was confirmed on Western blots. […] Because touch sensitivity of wild-type animals was not affected by this limited cholesterol depletion, the effects observed with the palmitoylation mutant cannot be attributed to indirect effects on neuronal growth or development. Test compounds that target palmitoylation sites in PHB domain proteins can be used to modulate activity of such proteins, for example, by reducing their activity.

[2] = biological target: T1, TRPC6 (Homo sapiens, UniProt Q9Y210); test: Oocyte electrophysiology, two-electrode voltage clamp; assay type: cell-based; conditions: TRPC6-expressing Xenopus laevis oocytes, Ca2+ free bath solution, 10 μM
T1 construct: expressed in transfected cells; host or cells: Xenopus laevis oocytes (cRNA injection)
T1 sequence (Q9Y210 1-931): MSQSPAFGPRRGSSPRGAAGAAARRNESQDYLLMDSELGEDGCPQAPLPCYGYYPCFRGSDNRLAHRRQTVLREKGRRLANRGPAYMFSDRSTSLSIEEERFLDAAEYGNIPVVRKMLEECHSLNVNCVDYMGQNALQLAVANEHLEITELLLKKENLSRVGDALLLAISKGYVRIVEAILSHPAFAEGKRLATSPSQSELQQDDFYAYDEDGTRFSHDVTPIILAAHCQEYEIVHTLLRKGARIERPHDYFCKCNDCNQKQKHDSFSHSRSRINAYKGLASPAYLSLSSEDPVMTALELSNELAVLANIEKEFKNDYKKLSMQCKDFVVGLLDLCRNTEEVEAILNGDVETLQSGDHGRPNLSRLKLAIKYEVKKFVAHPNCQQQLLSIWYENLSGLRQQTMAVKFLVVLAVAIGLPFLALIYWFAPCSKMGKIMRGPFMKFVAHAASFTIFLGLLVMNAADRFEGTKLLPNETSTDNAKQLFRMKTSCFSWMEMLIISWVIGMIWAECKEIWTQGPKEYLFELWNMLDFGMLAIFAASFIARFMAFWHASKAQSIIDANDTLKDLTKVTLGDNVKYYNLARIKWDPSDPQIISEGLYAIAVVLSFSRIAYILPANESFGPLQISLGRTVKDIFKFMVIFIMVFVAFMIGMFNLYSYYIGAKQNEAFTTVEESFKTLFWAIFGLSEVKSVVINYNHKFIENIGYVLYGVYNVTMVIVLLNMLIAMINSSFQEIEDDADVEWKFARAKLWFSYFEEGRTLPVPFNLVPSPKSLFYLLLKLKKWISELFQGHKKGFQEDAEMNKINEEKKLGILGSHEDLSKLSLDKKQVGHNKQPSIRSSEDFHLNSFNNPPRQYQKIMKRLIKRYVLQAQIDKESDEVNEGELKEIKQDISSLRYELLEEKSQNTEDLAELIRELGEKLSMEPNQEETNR
Experimental: Oocyte Electrophysiology. Xenopus laevis oocytes were isolated from adult frogs (Kähler, Hamburg, Germany), dispersed and defolliculated by a 45 minute treatment with collagenase (type A, Boehringer, Germany), and were rinsed and kept at 18° C. in ND96-buffer (in mmol/l): NaCl 96, KCI 2, CaCl2 1.8, MgCl2 1, HEPES 5, Na-pyruvate 2.5, pH 7.55), supplemented with theophylline (0.5 mmol/l) and gentamycin (5 mg/l).
To prepare cRNAs for TRPC6, Podocin and Podocin-DPHB (Podocin-ΔPHB), cDNAs encoding TRPC6, Podocin and Podocin-DPHB were transcribed in vitro using the T7 promoter and polymerase (Promega, Madison, Wis.). After isolation from adult Xenopus laevis female frogs (Kähler, Hamburg, Germany), oocytes were dispersed and defolliculated by a 45 minute treatment with collagenase (type A, Boebringer, Germany). Subsequently, the oocytes were rinsed and kept at 18° C. in ND96-buffer (in mmol/l): NaCl 96, KCI 2, CaCI2 1.8, MgCI2 1, HEPES 5, Na-pyruvate 2.5, pH. […] Membrane currents were measured by voltage clamping of the oocytes (Warner oocyte clamp amplifier OC725C) in intervals from −60 to +40 mV, each 1 s. Conductances were calculated according to Ohm's law. Na^+ conductances were determined by replacing Na^+ by n-methyl-D-glucamine (GNMDG) in a Ca^2+ free bath solution, before and after stimulation with 10 μM dioctanoyl glycerol (Sigma, Germany). […]

| inward Na+ current [2] | Structure (SMILES) | rescue of reduced touch sensitivity [1] |
| --- | --- | --- |
| – | CC(C)CCC[C@@H](C)[C@H]1CC[C@H]2C3=CC=C4C[C@@H](O)CC[C@]4(C)[C@H]3CC[C@]12C [7-dehydro cholesterol] | could be rescued |
| further augmented | CCCCCCCC/C=C\CCCCCCCC(=O)OC[C@H](CO)OC(C)=O [OAG, 1-oleoyl-2-acetyl-sn-glycerol] | – |
| – | CC(C)[C@@H](C)/C=C/[C@@H](C)[C@H]1CC[C@H]2C3=CC=C4C[C@@H](O)CC[C@]4(C)[C@H]3CC[C@]12C [ergosterol] | could be rescued |
| – | CC(C)CCC[C@@H](C)[C@H]1CC[C@H]2C3=CC[C@H]4C[C@@H](O)CC[C@]4(C)[C@H]3CC[C@]12C [lathosterol] | could be rescued |

Reference: US20090175845A1, “METHODS FOR IDENTIFYING COMPOUNDS THAT MODULATE PHB DOMAIN PROTEIN ACTIVITY AND COMPOSITIONS THEREOF” (THE TRUSTEES OF COLUMBIA UNIVERSITY IN THE CITY OF NEW YORK, priority 2005, published 2009)
